# Measurements: ChEMBL document CHEMBL6092180 (Eur J Med Chem, 2024)
# Calls of active or inactive are those of the source. The rule behind the calls is not given here.
# Legend:
# [1] = tested on: Candida albicans; experiment: Effect on sterol composition in Candida albicans SC5314 assessed as 14alpha-demethyllanosterol content at 0.05 microg/ml measured after 16 hrs by GC-MS analysis (reference value: […] %); assay type: functional; conditions: dose 0.05 µg/ml
# [2] = tested on: Candida albicans; experiment: Antifungal activity against fluconazole-resistant Candida albicans clinical isolate 100 assessed as inhibition of fungal growth by CLSI M27-A3 guidelines based method; assay type: functional
# [3] = tested on: Candida albicans; experiment: Fungicidal activity fluconazole and iodiconazole resistant Candida albicans clinical isolate 17# assessed as decrease in number of fungi at 4 times of MIC measured within 24 hrs by time-kill kinetics assay; assay type: functional, organism-based
# [4] = Half-life in Sprague-Dawley rat at 3 mg/kg, iv by LC-MS/MS analysis; assay type: ADME, organism-based; conditions: in vivo
# [5] = Cmax in Sprague-Dawley rat at 3 mg/kg, iv by LC-MS/MS analysis; assay type: ADME, organism-based; conditions: in vivo
# [6] = Oral bioavailability in Sprague-Dawley rat at 10 mg/kg by LC-MS/MS analysis; assay type: ADME, organism-based; conditions: in vivo
# [7] = tested on: Candida albicans; experiment: Antifungal activity against fluconazole-resistant Candida albicans CaR assessed as inhibition of fungal growth by CLSI M27-A3 guidelines based method; assay type: functional
# [8] = Cytotoxicity against HUVEC cells assessed as inhibition of cell growth incubated for 72 hrs by MTT assay; assay type: toxicity, cell-based; conditions: human
# [9] = tested on: Candida albicans; experiment: Fungicidal activity against Candida albicans SC5314 incubated for 48 hrs by PDA plate based method; assay type: functional
# [10] = Cytotoxicity against human OVCAR-3 cells assessed as inhibition of cell growth incubated for 72 hrs by MTT assay; assay type: toxicity, cell-based
# [11] = Metabolic stability in human liver microsomes assessed as half-life preincubated for 10 mins followed by NADPH addition and measured after 60 mins by LC-MS/MS analysis; assay type: ADME, Microsome; conditions: time 70 min
# [12] = MRT(0 to t) in Sprague-Dawley rat at 3 mg/kg, iv by LC-MS/MS analysis; assay type: ADME, organism-based; conditions: in vivo
# [13] = tested on: Pichia kudriavzevii; experiment: Antifungal activity against Candida krusei GIM 2.1 assessed as inhibition of fungal growth by CLSI M27-A3 guidelines based method; assay type: functional
# [14] = Metabolic stability in human liver microsomes assessed as parent compound remaining preincubated for 10 mins followed by NADPH addition and measured after 60 mins by LC-MS/MS analysis; assay type: ADME, Microsome; conditions: time 70 min, read-out: Stability
# [15] = tested on: Aspergillus fumigatus; experiment: Antifungal activity against Aspergillus fumigatus cgmcc 3.7795 assessed as inhibition of fungal growth by CLSI M27-A3 guidelines based method; assay type: functional
# [16] = tested on: Cryptococcus neoformans; experiment: Antifungal activity against Cryptococcus neoformans CGMCC 2.3161 assessed as inhibition of fungal growth by CLSI M27-A3 guidelines based method; assay type: functional
# [17] = tested on: Candida albicans; experiment: Antifungal activity against Candida albicans SC5314 assessed as inhibition of fungal growth by CLSI M27-A3 guidelines based method; assay type: functional
# [18] = tested on: Candida tropicalis; experiment: Antifungal activity against Candida tropicalis GIM 2.183 assessed as inhibition of fungal growth by CLSI M27-A3 guidelines based method; assay type: functional
# [19] = Cytotoxicity against HEK293T cells assessed as inhibition of cell growth incubated for 72 hrs by MTT assay; assay type: toxicity, cell-based, HEK-293T; conditions: human
# [20] = tested on: Candida albicans; experiment: Antifungal activity against fluconazole-resistant Candida albicans clinical isolate 311 assessed as inhibition of fungal growth by CLSI M27-A3 guidelines based method; assay type: functional
# [21] = Tmax in Sprague-Dawley rat at 3 mg/kg, iv by LC-MS/MS analysis; assay type: ADME, organism-based; conditions: in vivo
# [22] = tested on: Candida albicans; experiment: Effect on sterol composition in Candida albicans SC5314 assessed as eburicol content at 0.05 microg/ml measured after 16 hrs by GC-MS analysis relative to control; assay type: functional; conditions: dose 0.05 µg/ml
# [23] = tested on: Candida albicans; experiment: Antifungal activity against fluconazole-resistant Candida albicans clinical isolate 901 assessed as inhibition of fungal growth by CLSI M27-A3 guidelines based method; assay type: functional
# [24] = tested on: Candida albicans; experiment: Antifungal activity against Candida albicans GIM 2.194 assessed as inhibition of fungal growth by CLSI M27-A3 guidelines based method; assay type: functional
# [25] = tested on: Candida albicans; experiment: Effect on sterol composition in Candida albicans SC5314 assessed as lanosterol content at 0.05 microg/ml measured after 16 hrs by GC-MS analysis relative to control; assay type: functional; conditions: dose 0.05 µg/ml
# [26] = AUC (0 to infinity) in Sprague-Dawley rat at 3 mg/kg, iv by LC-MS/MS analysis; assay type: ADME, organism-based; conditions: in vivo
# [27] = Tmax in Sprague-Dawley rat at 10 mg/kg, po by LC-MS/MS analysis; assay type: ADME, organism-based; conditions: in vivo
# [28] = Cytotoxicity against human NCI-H460 cells assessed as inhibition of cell growth incubated for 72 hrs by MTT assay; assay type: toxicity, cell-based
# [29] = tested on: Candida albicans; experiment: Antifungal activity against fluconazole-resistant Candida albicans clinical isolate 904 assessed as inhibition of fungal growth by CLSI M27-A3 guidelines based method; assay type: functional
# [30] = tested on: Candida albicans; experiment: Fungicidal activity fluconazole and iodiconazole resistant Candida albicans clinical isolate 17# assessed as decrease in number of fungi at 1 times of MIC measured within 24 hrs by time-kill kinetics assay; assay type: functional, organism-based
# [31] = tested on: Candida albicans; experiment: Antifungal activity against fluconazole and iodiconazole resistant Candida albicans clinical isolate 17# assessed as inhibition of fungal growth by CLSI M27-A3 guidelines based method; assay type: functional
# [32] = Half-life in Sprague-Dawley rat at 10 mg/kg, po by LC-MS/MS analysis; assay type: ADME, organism-based; conditions: in vivo
# [33] = tested on: Candida parapsilosis; experiment: Antifungal activity against Candida parapsilosis GIM 2.190 assessed as inhibition of fungal growth by CLSI M27-A3 guidelines based method; assay type: functional; conditions: Lodderomyces parapsilosis
# [34] = tested on: Candida albicans; experiment: Effect on sterol composition in Candida albicans SC5314 assessed as ergosterol content at 0.05 microg/ml measured after 16 hrs by GC-MS analysis (reference value: 96.96 %); assay type: functional; conditions: dose 0.05 µg/ml
# [35] = tested on: Candida albicans; experiment: Effect on sterol composition in Candida albicans SC5314 assessed as other sterols content at 0.05 microg/ml measured after 16 hrs by GC-MS analysis (reference value: 1.06 %); assay type: functional; conditions: dose 0.05 µg/ml
# [36] = tested on: Candida albicans; experiment: Antifungal activity against fluconazole-resistant Candida albicans clinical isolate 632 assessed as inhibition of fungal growth by CLSI M27-A3 guidelines based method; assay type: functional
# [37] = tested on: Candida albicans; experiment: Fungicidal activity fluconazole and iodiconazole resistant Candida albicans clinical isolate 17# assessed as decrease in number of fungi at 2 times of MIC measured within 24 hrs by time-kill kinetics assay; assay type: functional, organism-based
# [38] = Clearance in Sprague-Dawley rat at 3 mg/kg, iv by LC-MS/MS analysis; assay type: ADME, organism-based; conditions: in vivo
# [39] = tested on: Nakaseomyces glabratus; experiment: Antifungal activity against Candida glabrata assessed as inhibition of fungal growth by CLSI M27-A3 guidelines based method; assay type: functional
# [40] = tested on: Candida albicans; experiment: Antibiofilm activity against fluconazole-resistant Candida albicans CPCC400616 assessed as inhibition of metabolic activity of biofilm measured after 6 hrs by XTT reduction assay; assay type: functional
# [41] = tested on: Candida albicans; experiment: Effect on sterol composition in Candida albicans SC5314 assessed as obtusifoliol content at 0.05 microg/ml measured after 16 hrs by GC-MS analysis relative to control; assay type: functional; conditions: dose 0.05 µg/ml
# [42] = AUC (0 to infinity) in Sprague-Dawley rat at 10 mg/kg, po by LC-MS/MS analysis; assay type: ADME, organism-based; conditions: in vivo
# [43] = tested on: Candida albicans; experiment: Antifungal activity against fluconazole-resistant Candida albicans clinical isolate 103 assessed as inhibition of fungal growth by CLSI M27-A3 guidelines based method; assay type: functional
# [44] = Cmax in Sprague-Dawley rat at 10 mg/kg, po by LC-MS/MS analysis; assay type: ADME, organism-based; conditions: in vivo
# [45] = tested on: Candida albicans; experiment: Antibiofilm activity against fluconazole-resistant Candida albicans CPCC400616 assessed as inhibition of metabolic activity of biofilm measured after 24 hrs by XTT reduction assay; assay type: functional
# [46] = Apparent volume of distribution in Sprague-Dawley rat at 3 mg/kg, iv by LC-MS/MS analysis; assay type: ADME, organism-based; conditions: in vivo, read-out: Vz
# [47] = tested on: Candida albicans; experiment: Inhibition of hyphal formation in fluconazole-resistant Candida albicans CPCC400616 assessed as reduction in invasive ability at 2 microg/ml measured after 4 hrs by inverted microscopic analysis; assay type: functional, organism-based; conditions: dose 2.0 µg/ml
# [48] = tested on: Candida albicans; experiment: Fungicidal activity against fluconazole and iodiconazole resistant Candida albicans clinical isolate 17# incubated for 48 hrs by PDA plate based method; assay type: functional
smiles,measurement,setting,value
C[C@@H](N(C)Cc1ccc(C#Cc2ccc(F)cc2F)cc1)[C@](O)(Cn1cncn1)c1ccc(F)cc1F,Activity,[1],2.79%
same,MIC80,[2],4 µg/mL
same,Activity,[3],Active; Effectively Kills Fungal Cells In Viable Colony Counts
same,half-life,[4],6.57 h
same,Cmax,[5],2460 ng/mL
same,bioavailability,[6],26.3%
same,MIC80,[7],0.25 µg/mL
same,IC50 at 72 h,[8],> 10 µM
same,MFC,[9],0.125 µg/mL
same,IC50 at 72 h,[10],> 10 µM
same,half-life,[11],0.503 h
same,MRT last,[12],1.92 h
same,MIC80,[13],0.01 µg/mL
same,remaining at 1 h,[14],25.9%
same,MIC80,[15],0.05 µg/mL
same,MIC80,[16],0.013 µg/mL
same,MIC80,[17],0.006 µg/mL
same,MIC80,[18],0.006 µg/mL
same,IC50 at 72 h,[19],> 10 µM
same,MIC80,[20],8 µg/mL
same,Tmax,[21],4.98 min
same,Activity,[22],70.13%
same,MIC80,[23],4 µg/mL
same,MIC80,[24],0.006 µg/mL
same,Activity,[25],9.97%
same,AUC(0-inf),[26],1830 ng·h/mL
same,Tmax,[27],2.33 h
same,IC50 at 72 h,[28],> 10 µM
same,MIC80,[29],8 µg/mL
same,Activity,[30],Active
same,MIC80,[31],0.25 µg/mL
same,half-life,[32],4.08 h
same,MIC80,[33],0.006 µg/mL
same,Activity,[34],0.29%
same,Activity,[35],3.13%
same,MIC80,[36],4 µg/mL
same,Activity,[37],Active
same,clearance,[38],27.5 mL/min/kg
same,MIC80,[39],0.01 µg/mL
same,MIC50,[40],0.5 µg/mL
same,Activity,[41],13.69%
same,AUC(0-inf),[42],1600 ng·h/mL
same,MIC80,[43],4 µg/mL
same,Cmax,[44],283 ng/mL
same,MIC50,[45],4 µg/mL
same,Vd,[46],15.7 L/kg
same,inhibition,[47],Active; Blockade Of Morphological Transformation Observed
same,MFC,[48],1 µg/mL
